Test results: patent US6723841B2, “Corticotropin-releasing factor2 receptors” (priority 1994, dated 2004)
Ends that are not written are not given here.

What was measured:
Type in all cases: cell-based
human CRF2α receptor = experiment: cAMP assay (adenylate cyclase stimulation) in cells transfected with CRF2α receptor; conditions: cAMP production, read-out: effective concentration of one-half maximal adenylate cyclase stimulation (EC50), human CRF2α receptor
Protocol: (§1) For agonist testing, compounds are added to wells with buffer only in order to identify compounds with intrinsic activity. […] Compounds are then assessed for their ability to inhibit the CRF-stimulated cAMP production in the transfected cells. Briefly, cells are plated and grown in DMEM containing 10% fetal bovine serum for 2-4 days in 24-well plates at 37° C. On the day of assay, the medium is removed by vacuum aspiration and 100 μl of DMEM, 10 mM MgCl2, 1 mM isobutylmethylxanthine (a phosphodiesterase inhibitor to inhibit the breakdown of cAMP produced) and 0.1% BSA (pH 7.2) are added to each well. CRF, related peptides and organic test molecules are added to individual wells. The plates are incubated at 37° C. for a period of 1 hour. Following incubation, the wells are aspirated, rinsed once with PBS and aspirated again. 300 μl of 95% Ethanol and 20 mM HCl (EtOH/HCl) are then added to each well and the plates incubated at −20° C. overnight to extract the produced cAMP. The EtOH/HCl is removed, placed in 1.5 ml polypropylene eppendorf tubes and the wells washed with an additional 200 μl of EtOH/HCl and pooled with the initial sample. All samples are dried in a Speed-Vac (Savant Instruments, Farmingdale N.Y.) and either stored at −20° C. until use or reconstituted with 500 μl of sodium acetate buffer pH 7.5 and assayed immediately for cAMP concentration using a radioimmunoassay kit from Biomedical Technologies Inc. (Stoughton Mass.) according to manufacturers instructions.
The above results have been formulated below in Table I, wherein the effective concentration of one-half maximal adenylate cyclase stimulation (EC50) are presented.

human CRF1 receptor = molecular target: T1, human CRF1 receptor (Homo sapiens, UniProt P34998); experiment: cAMP assay (adenylate cyclase stimulation) in cells transfected with CRF1 receptor; conditions: for EC50: transfected cells, cAMP production, read-out: effective concentration of one-half maximal adenylate cyclase stimulation (EC50), human CRF1 receptor; for cAMP accumulation in cells transfected with the CRF1 receptor: FIG. 3
T1 construct: expressed in transfected cells
T1 sequence (P34998 24-415): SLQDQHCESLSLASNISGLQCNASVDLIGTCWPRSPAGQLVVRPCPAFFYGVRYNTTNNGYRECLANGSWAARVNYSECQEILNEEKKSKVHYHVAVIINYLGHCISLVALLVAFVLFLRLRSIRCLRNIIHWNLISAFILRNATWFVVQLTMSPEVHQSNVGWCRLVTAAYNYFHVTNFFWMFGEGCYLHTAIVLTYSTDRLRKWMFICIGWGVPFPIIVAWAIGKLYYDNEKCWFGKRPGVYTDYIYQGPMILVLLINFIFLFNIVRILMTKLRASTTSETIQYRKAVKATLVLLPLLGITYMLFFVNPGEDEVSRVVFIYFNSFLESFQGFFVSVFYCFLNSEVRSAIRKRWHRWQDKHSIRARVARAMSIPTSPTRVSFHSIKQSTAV
Protocol: (§2) For agonist testing, compounds are added to wells with buffer only in order to identify compounds with intrinsic activity. […] Briefly, cells are plated and grown in DMEM containing 10% fetal bovine serum for 2-4 days in 24-well plates at 37° C. On the day of assay, the medium is removed by vacuum aspiration and 100 μl of DMEM, 10 mM MgCl2, 1 mM isobutylmethylxanthine (a phosphodiesterase inhibitor to inhibit the breakdown of cAMP produced) and 0.1% BSA (pH 7.2) are added to each well. […] The plates are incubated at 37° C. for a period of 1 hour. Following incubation, the wells are aspirated, rinsed once with PBS and aspirated again. 300 μl of 95% Ethanol and 20 mM HCl (EtOH/HCl) are then added to each well and the plates incubated at −20° C. overnight to extract the produced cAMP. The EtOH/HCl is removed, placed in 1.5 ml polypropylene eppendorf tubes and the wells washed with an additional 200 μl of EtOH/HCl and pooled with the initial sample. All samples are dried in a Speed-Vac (Savant Instruments, Farmingdale N.Y.) and either stored at −20° C. until use or reconstituted with 500 μl of sodium acetate buffer pH 7.5 and assayed immediately for cAMP concentration using a radioimmunoassay kit from Biomedical Technologies Inc. (Stoughton Mass.) according to manufacturers instructions.

rat CRF2α receptor = molecular target: T2, rat CRF2α receptor (Rattus norvegicus, UniProt P47866); experiment: cAMP accumulation in cells transfected with rat CRF2α receptor (FIG. 4)
T2 construct: A full-length CRF2 receptor clone in pBluescriptSK- is isolated from the phage clone described above; expressed in transfected cells; host or cells: COS-7
Protocol: as §1, with “All samples are dried in a Speed-Vac (Savant Instruments, Farmingdale N.Y.) and either stored at −20° C. until use or reconstituted with 500 μl of sodium acetate buffer pH 7.5 and assayed immediately for cAMP concentration using a radioimmunoassay kit from Biomedical Technologies Inc. (Stoughton Mass.) according to manufacturers instructions.” left out
In FIG. 4, the rat CRF2α receptor has been transfected into cells and cAMP accumulation is measured in response to the same drugs as shown in FIG. 3. […]

rat CRF2β receptor = molecular target: T3, rat CRF2β receptor (Rattus norvegicus, UniProt P47866); experiment: cAMP assay (adenylate cyclase stimulation) in cells transfected with CRF2β receptor; conditions: cAMP production, read-out: effective concentration of one-half maximal adenylate cyclase stimulation (EC50), rat CRF2β receptor
T3 construct: A full-length CRF2 receptor clone in pBluescriptSK- is isolated from the phage clone described above; expressed in transfected cells; host or cells: COS-7
T3 sequence (P47866 1-431 isoform P47866-2): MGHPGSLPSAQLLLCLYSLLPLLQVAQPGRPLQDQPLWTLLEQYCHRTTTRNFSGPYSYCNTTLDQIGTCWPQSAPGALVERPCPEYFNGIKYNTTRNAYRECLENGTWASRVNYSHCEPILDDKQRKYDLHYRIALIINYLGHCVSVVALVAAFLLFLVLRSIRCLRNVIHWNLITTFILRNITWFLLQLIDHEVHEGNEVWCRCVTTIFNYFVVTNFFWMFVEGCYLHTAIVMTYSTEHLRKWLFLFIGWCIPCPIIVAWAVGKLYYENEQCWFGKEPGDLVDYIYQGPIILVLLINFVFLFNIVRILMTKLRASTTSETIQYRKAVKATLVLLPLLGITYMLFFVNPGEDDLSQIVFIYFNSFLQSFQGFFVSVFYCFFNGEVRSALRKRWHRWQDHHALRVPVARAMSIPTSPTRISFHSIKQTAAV
Protocol: as §2

T2 sequence (P47866 whole entry): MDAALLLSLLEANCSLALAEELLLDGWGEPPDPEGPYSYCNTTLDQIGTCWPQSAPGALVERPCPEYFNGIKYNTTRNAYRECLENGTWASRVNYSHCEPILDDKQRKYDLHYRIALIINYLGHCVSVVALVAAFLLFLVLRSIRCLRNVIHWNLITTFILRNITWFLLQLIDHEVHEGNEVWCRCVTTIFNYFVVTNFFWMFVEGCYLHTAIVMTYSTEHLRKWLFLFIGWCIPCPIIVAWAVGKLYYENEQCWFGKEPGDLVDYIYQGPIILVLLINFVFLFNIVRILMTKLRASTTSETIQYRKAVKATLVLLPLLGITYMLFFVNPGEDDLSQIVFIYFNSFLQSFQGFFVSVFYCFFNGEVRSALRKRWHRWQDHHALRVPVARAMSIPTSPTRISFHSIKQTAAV

EC50 (human CRF2α receptor)	EC50 (human CRF1 receptor)	Compound	cAMP accumulation in cells transfected with the CRF1 receptor (human CRF1 receptor)	relative potency at stimulating cAMP, rat CRF2α receptor (rat CRF2α receptor)	EC50 (rat CRF2β receptor)
> 1000 nM	> 1000 nM	CC[C@H](C)[C@H](NC(=O)[C@H](C)NC(=O)[C@H](CC(=O)O)NC(=O)[C@H](C)NC(=O)[C@@H](N)Cc1ccc(O)cc1)C(=O)N[C@@H](Cc1ccccc1)C(=O)N[C@H](C(=O)N[C@@H](CC(N)=O)C(=O)N[C@@H](CO)C(=O)N[C@@H](Cc1ccc(O)cc1)C(=O)N[C@@H](CCCNC(=N)N)C(=O)N[C@@H](CCCCN)C(=O)N[C@H](C(=O)N[C@@H](CC(C)C)C(=O)NCC(=O)N[C@@H](CCC(N)=O)C(=O)N[C@@H](CC(C)C)C(=O)N[C@@H](CO)C(=O)N[C@@H](C)C(=O)N[C@@H](CCCNC(=N)N)C(=O)N[C@@H](CCCCN)C(=O)N[C@@H](CC(C)C)C(=O)N[C@@H](CC(C)C)C(=O)N[C@@H](CCC(N)=O)C(=O)N[C@@H](CC(=O)O)C(=O)N[C@H](C(=O)N[C@@H](CCSC)C(=O)N[C@@H](CO)C(=O)N[C@@H](CCCNC(=N)N)C(=O)N[C@@H](CCC(N)=O)C(=O)N[C@@H](CCC(N)=O)C(=O)NCC(=O)N[C@@H](CCC(=O)O)C(=O)N[C@@H](CO)C(=O)N[C@@H](CC(N)=O)C(=O)N[C@@H](CCC(N)=O)C(=O)N[C@@H](CCC(=O)O)C(=O)N[C@@H](CCCNC(=N)N)C(=O)NCC(=O)N[C@@H](C)C(=O)N[C@@H](CCCNC(=N)N)C(=O)N[C@@H](C)C(=O)N[C@@H](CCCNC(=N)N)C(=O)N[C@@H](CC(C)C)C(N)=O)[C@@H](C)CC)C(C)C)[C@@H](C)O [hGRF]	–	–	–
> 1000 nM	> 1000 nM	ISLDLTFHLLREVLEMARAEQLAQQAHS [r/hCRF(6-33)]	–	–	–
> 1000 nM	–	DLTFHLLREMLEMAKAEQEAEQAALNRLLLEEA-NH2 (C-terminus assumed) [α-helical oCRF(9-41)]	–	–	–

More lines, now with the values behind:

Compound	EC50 (human CRF2α receptor)	EC50 (human CRF1 receptor)	cAMP accumulation in cells transfected with the CRF1 receptor (human CRF1 receptor)	relative potency at stimulating cAMP, rat CRF2α receptor (rat CRF2α receptor)	EC50 (rat CRF2β receptor)
CC[C@H](C)[C@H](NC(=O)[C@H](CO)NC(=O)[C@H](CC(N)=O)NC(=O)[C@H](CC(C)C)NC(=O)[C@H](Cc1ccc(O)cc1)NC(=O)[C@H](CCCCN)NC(=O)[C@H](CCCCN)NC(=O)[C@@H](NC(=O)[C@H](C)NC(=O)[C@H](CCSC)NC(=O)[C@H](CCC(N)=O)NC(=O)[C@H](CCCCN)NC(=O)[C@H](CCCNC(=N)N)NC(=O)[C@H](CC(C)C)NC(=O)[C@H](CCCNC(=N)N)NC(=O)[C@@H](NC(=O)[C@H](Cc1ccc(O)cc1)NC(=O)[C@H](CC(N)=O)NC(=O)[C@H](CC(=O)O)NC(=O)[C@@H](NC(=O)[C@H](Cc1ccccc1)NC(=O)[C@@H](NC(=O)[C@H](C)NC(=O)[C@H](CC(=O)O)NC(=O)[C@H](CO)NC(=O)[C@@H](N)Cc1c[nH]cn1)C(C)C)[C@@H](C)O)[C@@H](C)O)C(C)C)C(=O)N[C@@H](CC(C)C)C(=O)N[C@@H](CC(N)=O)C(N)=O [VIP]	> 1000 nM	–	–	–	–
d-Phe r/hCRF(12-41): CRF receptor antagonist peptide	> 1000 nM	> 1000 nM	–	–	–
oCRF	80 nM	–	dose-dependent increase in cAMP	–	–
N=C(N)NCCC[C@H](NC(=O)[C@@H]1CCCN1C(=O)[C@@H]1CSSC[C@H](N)C(=O)N[C@@H](Cc2ccc(O)cc2)C(=O)N[C@@H](Cc2ccccc2)C(=O)N[C@@H](CCC(N)=O)C(=O)N[C@@H](CC(N)=O)C(=O)N1)C(=O)NCC(N)=O [AVP]	> 1000 nM	–	–	–	–
CC[C@H](C)[C@H](NC(=O)[C@@H](NC(=O)[C@H](CC(=O)O)NC(=O)[C@H](CC(C)C)NC(=O)[C@H](CC(C)C)NC(=O)[C@H](CC(C)C)NC(=O)[C@H](CCCNC(=N)N)NC(=O)[C@H](CC(N)=O)NC(=O)[C@H](CC(N)=O)NC(=O)[C@H](C)NC(=O)[C@H](C)NC(=O)[C@H](CCC(N)=O)NC(=O)[C@H](CCC(N)=O)NC(=O)[C@H](CCCCN)NC(=O)[C@H](CCC(=O)O)NC(=O)[C@H](CCCCN)NC(=O)[C@H](CCC(=O)O)NC(=O)[C@H](CCC(N)=O)NC(=O)[C@H](CCCCN)NC(=O)[C@H](CCC(=O)O)NC(=O)[C@@H](NC(=O)[C@H](CCC(=O)O)NC(=O)[C@@H](NC(=O)[C@H](CCSC)NC(=O)[C@H](CCCCN)NC(=O)[C@H](CCCNC(=N)N)NC(=O)[C@H](CC(C)C)NC(=O)[C@H](CC(C)C)NC(=O)[C@H](CCC(=O)O)NC(=O)[C@H](CC(C)C)NC(=O)[C@H](CO)NC(=O)[C@H](CC(C)C)NC(=O)[C@H](CC(=O)O)NC(=O)[C@@H](NC(=O)[C@H](CO)NC(=O)[C@@H](NC(=O)[C@@H]1CCCN1C(=O)[C@@H]1CCCN1C(=O)CNC(=O)[C@@H]1CCC(=O)N1)[C@@H](C)CC)[C@@H](C)CC)[C@@H](C)CC)[C@@H](C)CC)[C@@H](C)O)C(N)=O [Sauvagine]	0.5 nM	–	–	more potent than either oCRF or r/hCRF	0.4 nM
NDDPPISIDLTFHLLRNMIEMARIENEREQAGLNRKYLDEV-NH2 (C-terminus assumed) [Urotensin I]	2 nM	–	dose-dependent increase in cAMP	more potent than either oCRF or r/hCRF	–
